Data from the supplement of paper PMC11208160.

Test: recombinant barcode read abundance after kanamycin selection (control-corrected) (log10(CPM+1)); higher = more efficient recombination; sequences stand for … in AGTGCAGAGAAAATCGGCCAGTTTTCTCTGCCTGCAGTCCGCATGCCGT…AGATTTATGCAGCGGACTGCCTTTCTCCCAAAGTGATAAACCGGACAGTATCATGGACCGGTTTTCCCGGTAATCCGTATTTGCAAGGTTGGTTTCACT; site = the 11-nt target
Procedure, shortened: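 Recombination efficiency comes from barcode counts at recombinant junctions, converted to counts per million, averaged and corrected against the control. Values appear as log10(CPM+1). They were obtained from a pooled E. coli screen in which each oligo paired a target with an IS621 bridge RNA target-binding loop, and cells were plated in duplicate on chloramphenicol/ampicillin LB agar or on chloramphenicol/ampicillin/kanamycin with 0.1 mM IPTG.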
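Also: IS621 recombinase and bridge RNA in Escherichia coli cells.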

Sequence | recombinant barcode read abundance (log10)
GAAGTGCCTTGGGTTCTAACCTGTTGCCT (site GAAGGGCCTAG) | 0.195
GAAGTGCCTTGGGTTCTAACCTGTTGCCT (site GAAGTGCCTAG) | 1.92
GAATCCTCTTGGGTTCTAACCTGTTGCCT (site AAATCCTCTAG) | 0.145
GAATCCTCTTGGGTTCTAACCTGTTGCCT (site CAATCCTCTAG) | 0.531
GAATCCTCTTGGGTTCTAACCTGTTGCCT (site GAATCCTCTAG) | 2.06
GAATCCTCTTGGGTTCTAACCTGTTGCCT (site TAATCCTCTAG) | 0.483
GAATGAGCTTGGGTTCTAACCTGTTGCCT (site CTCACGACTCT) | 0.014
GAATGAGCTTGGGTTCTAACCTGTTGCCT (site GAATGAGCTAG) | 1.43
GACAAGTCTTGGGTTCTAACCTGTTGCCT (site GAAACGTCTAG) | 0.173
GACAAGTCTTGGGTTCTAACCTGTTGCCT (site GACAAGTCTAG) | 1.14
GACACAACTTGGGTTCTAACCTGTTGCCT (site GACACAACTAG) | 0
GACACAACTTGGGTTCTAACCTGTTGCCT (site GACCCATCTAG) | 0.338
GACACGCCTTGGGTTCTAACCTGTTGCAT (site GACACGCCTAA) | 0.0135
GACACGCCTTGGGTTCTAACCTGTTGCAT (site GACACGCCTAC) | 0.326
GACACGCCTTGGGTTCTAACCTGTTGCAT (site GACACGCCTAG) | 0.976
GACACGCCTTGGGTTCTAACCTGTTGCAT (site GACACGCCTAT) | 0.189
GACAGGCCTTGGGTTCTAACCTGTTGCCT (site CACGGGCCTAG) | 0.041
GACAGGCCTTGGGTTCTAACCTGTTGCCT (site GACAGGCCTAG) | 0.627
GACATTCCTTGGGTTCTAACCTGTTGCCT (site AACATTCCTAG) | 0.375
GACATTCCTTGGGTTCTAACCTGTTGCCT (site CACATTCCTAG) | 0.113
GACATTCCTTGGGTTCTAACCTGTTGCCT (site GACATTCCTAG) | 0.131
GACATTCCTTGGGTTCTAACCTGTTGCCT (site TACATTCCTAG) | 0.0381

Sequence | recombinant barcode read abundance (log10)
GACCACCCTTGGGTTCTAACCTGTTGCGG (site ATCCACCCTCC) | 1.14
GACCACCCTTGGGTTCTAACCTGTTGCGG (site GACCACCCTCC) | 2.85
GACCCTACTTGGGTTCTAACCTGTTGCCT (site AACCCTACTAG) | 0.111
GACCCTACTTGGGTTCTAACCTGTTGCCT (site CACCCTACTAG) | 0.375
GACCCTACTTGGGTTCTAACCTGTTGCCT (site GACCCTACTAG) | 0.516
GACCCTACTTGGGTTCTAACCTGTTGCCT (site TACCCTACTAG) | 0.119
GACCGGGCTTGGGTTCTAACCTGTTGCCT (site GACCGAGCTAG) | 0.092
GACCGGGCTTGGGTTCTAACCTGTTGCCT (site GACCGCGCTAG) | 0.234
GACCGGGCTTGGGTTCTAACCTGTTGCCT (site GACCGGGCTAG) | 0.592
GACCGGGCTTGGGTTCTAACCTGTTGCCT (site GACCGTGCTAG) | 0.268
GACCGTCCTTGGGTTCTAACCTGTTGCAT (site GACCGTCCTAA) | 0.167
GACCGTCCTTGGGTTCTAACCTGTTGCAT (site GACCGTCCTAC) | 0.479
GACCGTCCTTGGGTTCTAACCTGTTGCAT (site GACCGTCCTAG) | 0.54
GACCGTCCTTGGGTTCTAACCTGTTGCAT (site GACCGTCCTAT) | 1.26
GACCGTCCTTGGGTTCTAACCTGTTGCCT (site GACCGTCCTAA) | 0.0128
GACCGTCCTTGGGTTCTAACCTGTTGCCT (site GACCGTCCTAC) | 0.1
GACCGTCCTTGGGTTCTAACCTGTTGCCT (site GACCGTCCTAG) | 1
GACCGTCCTTGGGTTCTAACCTGTTGCCT (site GACCGTCCTAT) | 0.263
GACGGATCTTGGGTTCTAACCTGTTGCAT (site GACGGATCTAA) | 0.191
GACGGATCTTGGGTTCTAACCTGTTGCAT (site GACGGATCTAC) | 0.269
GACGGATCTTGGGTTCTAACCTGTTGCAT (site GACGGATCTAG) | 0.233
GACGGATCTTGGGTTCTAACCTGTTGCAT (site GACGGATCTAT) | 1.09

Sequence | recombinant barcode read abundance (log10)
GACGGATCTTGGGTTCTAACCTGTTGCGT (site GACGGATCTAA) | 0.0403
GACGGATCTTGGGTTCTAACCTGTTGCGT (site GACGGATCTAC) | 0.705
GACGGATCTTGGGTTCTAACCTGTTGCGT (site GACGGATCTAG) | 0.569
GACGGATCTTGGGTTCTAACCTGTTGCGT (site GACGGATCTAT) | 1.35
GACGGCACTTGGGTTCTAACCTGTTGCCT (site CGGCTACCTCC) | 0.0844
GACGGCACTTGGGTTCTAACCTGTTGCCT (site GACGGCACTAG) | 0.567
GACGTGCCTTGGGTTCTAACCTGTTGCCG (site CTTAGTACTAT) | 0.11
GACGTGCCTTGGGTTCTAACCTGTTGCCG (site GACGTGCCTCG) | 1.77
GACTAAGCTTGGGTTCTAACCTGTTGCGG (site CTGGGGTCTAA) | 0.0398
GACTAAGCTTGGGTTCTAACCTGTTGCGG (site GACTAAGCTCC) | 2.39
GACTCTCCTTGGGTTCTAACCTGTTGCAG (site GACTCTCCTCA) | 0.147
GACTCTCCTTGGGTTCTAACCTGTTGCAG (site GACTCTCCTCT) | 0.0267
GACTGAGCTTGGGTTCTAACCTGTTGCGG (site AGACAGTCTTG) | 0.046
GACTGAGCTTGGGTTCTAACCTGTTGCGG (site GACTGAGCTCC) | 2.26
GACTGGGCTTGGGTTCTAACCTGTTGCTG (site GACTGGCCTAA) | 0.239
GACTGGGCTTGGGTTCTAACCTGTTGCTG (site GACTGGGCTCA) | 1.58
GACTGTCCTTGGGTTCTAACCTGTTGCGA (site GACCGTCCTTG) | 0.372
GACTGTCCTTGGGTTCTAACCTGTTGCGA (site GACTGTCCTTC) | 1.8
GACTGTTCTTGGGTTCTAACCTGTTGCCT (site GACTGTTCTAG) | 0.13
GACTGTTCTTGGGTTCTAACCTGTTGCCT (site GCCTGTTCTAG) | 0.0949
GACTGTTCTTGGGTTCTAACCTGTTGCCT (site GGCTGTTCTAG) | 0.202
GACTGTTCTTGGGTTCTAACCTGTTGCCT (site GTCTGTTCTAG) | 0.0588

Sequence | recombinant barcode read abundance (log10)
GACTTGGCTTGGGTTCTAACCTGTTGCCT (site GACTTGACTAG) | 0.0256
GACTTGGCTTGGGTTCTAACCTGTTGCCT (site GACTTGCCTAG) | 0.146
GACTTGGCTTGGGTTCTAACCTGTTGCCT (site GACTTGGCTAG) | 0.146
GACTTGGCTTGGGTTCTAACCTGTTGCCT (site GACTTGTCTAG) | 0.124
GAGAAATCTTGGGTTCTAACCTGTTGCCT (site GAGAAATCTAG) | 0.59
GAGAAATCTTGGGTTCTAACCTGTTGCCT (site GAGACATCTAG) | 0.249
GAGAAATCTTGGGTTCTAACCTGTTGCCT (site GAGAGATCTAG) | 0.0526
GAGAAATCTTGGGTTCTAACCTGTTGCCT (site GAGATATCTAG) | 0.0612
GAGAAGTCTTGGGTTCTAACCTGTTGCCT (site GAGAAGTCTAG) | 1.93
GAGAAGTCTTGGGTTCTAACCTGTTGCCT (site GAGCAGTCTAG) | 0.133
GAGAAGTCTTGGGTTCTAACCTGTTGCCT (site GAGGAGTCTAG) | 0.115
GAGAAGTCTTGGGTTCTAACCTGTTGCCT (site GAGTAGTCTAG) | 0.404
GAGACAGCTTGGGTTCTAACCTGTTGCCT (site GAAACAGCTAG) | 0.367
GAGACAGCTTGGGTTCTAACCTGTTGCCT (site GACACAGCTAG) | 0.0512
GAGACAGCTTGGGTTCTAACCTGTTGCCT (site GAGACAGCTAG) | 1.54
GAGACAGCTTGGGTTCTAACCTGTTGCCT (site GATACAGCTAG) | 0.504
GAGACGGCTTGGGTTCTAACCTGTTGCTT (site GAGACGGCTAA) | 1.22
GAGACGGCTTGGGTTCTAACCTGTTGCTT (site GAGCCGGCTAA) | 0.193
GAGACGGCTTGGGTTCTAACCTGTTGCTT (site GAGGCGGCTAA) | 0.424
GAGACGGCTTGGGTTCTAACCTGTTGCTT (site GAGTCGGCTAA) | 0.206
